Results as given in patent US20110082130A1 (LIGAND PHARMACEUTICALS, INC., priority 2006, published 2011).
pKi: −log10 of the molar value.

The compounds below were run against T1, chimeric human H3 receptor (Homo sapiens, UniProt Q9Y5N1) (assay: Chimeric human H3 receptor GTP binding assay (agonist-stimulated GTP-gamma35S binding, Example 7)). Settings: Table II; "*" = Ki in assay of Example 7 less than 1 micromolar.
T1 construct: made in house; host or cells: Sf9 insect cells (baculovirus); P2 membrane preparation
T1 sequence (Q9Y5N1 with tags, fused parts or gaps): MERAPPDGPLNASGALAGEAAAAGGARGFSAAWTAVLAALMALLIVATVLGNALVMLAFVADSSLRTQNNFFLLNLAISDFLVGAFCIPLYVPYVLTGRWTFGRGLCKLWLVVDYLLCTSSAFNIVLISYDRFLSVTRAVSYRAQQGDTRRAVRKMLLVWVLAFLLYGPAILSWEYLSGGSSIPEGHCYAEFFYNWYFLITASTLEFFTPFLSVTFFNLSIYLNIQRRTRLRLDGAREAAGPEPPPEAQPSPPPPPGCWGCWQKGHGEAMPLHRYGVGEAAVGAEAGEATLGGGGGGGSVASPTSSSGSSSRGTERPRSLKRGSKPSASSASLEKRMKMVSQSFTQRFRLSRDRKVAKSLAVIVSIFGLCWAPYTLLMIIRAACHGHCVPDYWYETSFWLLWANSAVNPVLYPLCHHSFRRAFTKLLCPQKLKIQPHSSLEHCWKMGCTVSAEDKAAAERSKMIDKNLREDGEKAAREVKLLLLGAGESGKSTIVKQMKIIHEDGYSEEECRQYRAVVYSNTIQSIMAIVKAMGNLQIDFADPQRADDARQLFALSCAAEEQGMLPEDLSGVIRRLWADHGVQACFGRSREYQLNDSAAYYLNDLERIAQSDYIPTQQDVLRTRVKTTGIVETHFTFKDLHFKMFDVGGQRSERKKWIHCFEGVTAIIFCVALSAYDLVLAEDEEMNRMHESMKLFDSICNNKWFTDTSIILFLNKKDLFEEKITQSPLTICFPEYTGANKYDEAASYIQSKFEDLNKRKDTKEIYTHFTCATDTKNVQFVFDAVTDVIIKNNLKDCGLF
Type: biochemical
Procedure, shortened: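 Sf9 membranes co-expressing chimeric human H3 receptor and heterotrimeric G-protein, 35 μg/tube, in pH 7.4 Tris buffer with 10 μM GDP. Test compounds (10^−10–10^−6 M) competed against 1 μM histamine, […] GTP-gamma35S, 60 min at room temperature. Filter-bound radioactivity counted; IC50 converted to Ki by Cheng-Prusoff. Agonism/inverse agonism tested without histamine (EC50).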

| Structure (SMILES) | pKi |
| --- | --- |
| Cc1c2c(nn1-c1ccc(C#N)cn1)CCN(CC(=O)N1CCN(C3CCC3)CC1)C2 [Compound 274, 6-{5-[2-(4-cyclobutylpiperazin-1-yl)-2-oxoethyl]-3-methyl-4,5,6,7-tetrahydro-2H-pyrazolo[4,3-c]pyridin-2-yl}nicotinonitrile] | > 6.00 |
| Cn1c(-c2ccc3c(c2)CCN(CC(=O)N2CCN(C4CCC4)CC2)C3)cccc1=O [Compound 278, 6-{2-[2-(4-cyclobutylpiperazin-1-yl)-2-oxoethyl]-1,2,3,4-tetrahydroisoquinolin-6-yl}-1-methylpyridin-2(1H)-one] | > 6.00 |
| CCn1cc(-c2ccc3c(c2)CCN(CC(=O)N2CCN(C4CCC4)CC2)C3)ccc1=O [Compound 280, 5-{2-[2-(4-cyclobutylpiperazin-1-yl)-2-oxoethyl]-1,2,3,4-tetrahydroisoquinolin-6-yl}-1-ethylpyridin-2(1H)-one] | > 6.00 |
| CCCn1cc(-c2ccc3c(c2)CCN(CC(=O)N2CCN(C4CCC4)CC2)C3)ccc1=O [Compound 281, 5-{2-[2-(4-cyclobutylpiperazin-1-yl)-2-oxoethyl]-1,2,3,4-tetrahydroisoquinolin-6-yl}-1-propylpyridin-2(1H)-one] | > 6.00 |

Other lines, results leading:

| pKi | Structure (SMILES) |
| --- | --- |
| > 6.00 | Cc1c2c(nn1-c1ccc(Br)cn1)CCN(CC(=O)N1CCN(C3CCC3)CC1)C2 [Compound 273, 2-(5-bromopyridin-2-yl)-5-[2-(4-cyclobutylpiperazin-1-yl)-2-oxoethyl]-3-methyl-4,5,6,7-tetrahydro-2H-pyrazolo[4,3-c]pyridine] |
| > 6.00 | O=C(CN1CCc2nc(-n3cccn3)ncc2C1)N1CCN(C2CCC2)CC1 [Compound 275, 6-[2-(4-cyclobutylpiperazin-1-yl)-2-oxoethyl]-2-(1H-pyrazol-1-yl)-5,6,7,8-tetrahydropyrido[4,3-d]pyrimidine] |
| > 6.00 | O=C(CN1CCc2nc(C3CC3)ncc2C1)N1CCN(C2CCC2)CC1 [Compound 276, 6-[2-(4-cyclobutylpiperazin-1-yl)-2-oxoethyl]-2-cyclopropyl-5,6,7,8-tetrahydropyrido[4,3-d]pyrimidine] |
| > 6.00 | CC(C)(C)c1ncc2c(n1)CCN(CC(=O)N1CCN(C3CCC3)CC1)C2 [Compound 277, 2-tert-butyl-6-[2-(4-cyclobutylpiperazin-1-yl)-2-oxoethyl]-5,6,7,8-tetrahydropyrido[4,3-d]pyrimidine] |
| > 6.00 | O=C(CN1CCc2nc(-c3cccnn3)sc2C1)N1CCN(C2CCC2)CC1 [Compound 279, 5-[2-(4-cyclobutylpiperazin-1-yl)-2-oxoethyl]-2-pyridazin-3-yl-4,5,6,7-tetrahydro[1,3]thiazolo [5,4-c]pyridine] |

Same assay, conditions: assay of Example 7; "*" in Ki of Table II

| Structure (SMILES) | pKi |
| --- | --- |
| CC(C)n1cc(-c2ccc3c(c2)CCN(CC(=O)N2CCN(C4CCC4)CC2)C3)ccc1=O [Compound 282, 5-{2-[2-(4-cyclobutylpiperazin-1-yl)-2-oxoethyl]-1,2,3,4-tetrahydroisoquinolin-6-yl}-1-isopropylpyridin-2(1H)-one] | > 6.00 |
| O=C(CN1CCc2cc(-c3ccc(=O)n(CC(F)(F)F)c3)ccc2C1)N1CCN(C2CCC2)CC1 [Compound 283, 5-{2-[2-(4-cyclobutylpiperazin-1-yl)-2-oxoethyl]-1,2,3,4-tetrahydroisoquinolin-6-yl}-1-(2,2,2-trifluoroethyl)pyridin-2(1H)-one] | > 6.00 |

Other lines, results leading:

| pKi | Structure (SMILES) |
| --- | --- |
| > 6.00 | Cc1ccc(-n2ncc3c2CN(CC(=O)N2CCN(C4CCC4)CC2)CC3)nn1 [Compound 284, 6-[2-(4-cyclobutylpiperazin-1-yl)-2-oxoethyl]-1-(6-methylpyridazin-3-yl)-4,5,6,7-tetrahydro-1H-pyrazolo[3,4-c]pyridine] |
| > 6.00 | O=C(CN1CCc2c(cnn2-c2cccnn2)C1)N1CCN(C2CCC2)CC1 [Compound 285, 5-[2-(4-cyclobutylpiperazin-1-yl)-2-oxoethyl]-1-pyridazin-3-yl-4,5,6,7-tetrahydro-1H-pyrazolo[4,3-c]pyridine] |
| > 6.00 | COCc1ncc2c(n1)CCN(CC(=O)N1CCN(C3CCC3)CC1)C2 [Compound 286, 6-[2-(4-cyclobutylpiperazin-1-yl)-2-oxoethyl]-2-(methoxymethyl)-5,6,7,8-tetrahydropyrido[4,3-d]pyrimidine] |
